Source: patent publication US9107415B2, “2-(substituted-phenyl)-cyclopentane-1,3-dione compounds, and derivatives thereof” (Syngenta Limited, priority 2011, dated 2015)

Legend:
Format in all cases: in vivo
[1] = test system: Lolium multiflorum (LOLMU); experiment: Biological Example 4B (not-previously-formulated compounds) post-emergence herbicidal activity on grassy weeds; conditions: 14 DAA, technical compound in IF50 + Adigor, mean of two
Experimental: (§1) Seeds of a variety of test species are sown in standard soil in pots. After cultivation for 14 days under controlled conditions in a glasshouse (at 22/16°C., day/night; 16 hours light; 65% humidity), the plants are sprayed with an aqueous spray solution derived from the formulation of the technical active ingredient dissolved in acetone plus IF50 containing
(§2) 10.56 wt % Emulsogen™EL (castor oil ethoxylate, CAS Registry number 61791-12-6)
(§3) 42.22 wt % N-Methyl pyrrolidone
(§4) 42.22 wt % dipropylene glycol monoethyl ether
(§5) at a 1:20 ratio of (technical active ingredient:IF50). The adjuvant Adigor™(an adjuvant containing inter alia methylated rapeseed oil, e.g. available from Syngenta) is added to form a 0.5% v/v solution. The test plants are then grown on under controlled conditions in the glasshouse (at 22/16°C., day/night; 16 hours light; 65% humidity) and are watered twice daily. After 14 days the test is evaluated (100%=total damage to plant; 0%=no damage to plant).
(§6) Post-emergence herbicidal activity (phytotoxicity) data, on certain grassy monocotyledonous weeds and cereal crops in a glasshouse, are measured 14 days after application of the herbicide (14 DAA), for (a) a […] the same time as the herbicide, and (b) for a post-emergence application rate of 30 g/ha of the test herbicide with 50 g/ha of cloquintocet-mexyl safener applied at substantially the same time as the herbicide. Herbicidal activity (phytotoxicity) is evaluated visually, and an assessed percentage phytotoxicity score is given for each herbicidal application on each plant species (with 100%=total damage to plant; 0%=no damage to plant). Two repetitions are made for each experiment, and the mean herbicidal activity (phytotoxicity) data is reported.
(§7) Test plants: Avena fatua (AVEFA), Lolium multiflorum (LOLMU), Setaria viridis (SETVI), Poa annua (POAAN), Alopecurus myosuroides (ALOMY). All five of these are grassy monocotyledonous weeds.

[2] = test system: Spring Barley “Harrington”; experiment: Biological Example 4B post-emergence phytotoxicity on cereal crops; conditions: cloquintocet-mexyl 50 g/ha, 14 DAA, technical compound in IF50 + Adigor, mean of two
[3] = test system: Spring Barley “Harrington”; experiment: as above; conditions: 14 DAA, technical compound in IF50 + Adigor, mean of two
Experimental: as §1, §2, §3, §4, §5
Post-emergence herbicidal activity (phytotoxicity) data, on certain grassy monocotyledonous weeds and cereal crops in a glasshouse, are measured 14 days after application of the herbicide (14 DAA), for (a) a post-emergence application rate of 60 g/ha of the test herbicide with or without 50 g/ha of cloquintocet-mexyl safener applied at substantially the same time as the herbicide, and (b) for a post-emergence application rate of 30 g/ha of the test herbicide with 50 g/ha of cloquintocet-mexyl safener applied at substantially the same time as the herbicide. Herbicidal activity (phytotoxicity) is evaluated visually, and an assessed percentage phytotoxicity score is given for each herbicidal application on each plant species (with 100%=total damage to plant; 0%=no damage to plant). Two repetitions are made for each experiment, and the mean herbicidal activity (phytotoxicity) data is reported.

Lolium perenne (LOLPE) [4] = experiment: Biological Example 1 glasshouse screen, pre-emergence herbicidal activity; conditions: 312 h, application rate 250 g/ha, evaluated after 13 days, read-out: LOLPE percentage phytotoxicity
Procedure, shortened: (§8)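 Pots in a glasshouse (24/16°C day/night, 14 h light, 65% humidity) were sprayed one day after sowing (pre-emergence) or after 8 days (post-emergence), using acetone/water (50:50) with 0.5% Tween 20. Phytotoxicity was scored visually as % damage (0-100) 13 days after application.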

Avena fatua (AVEFA) [5] = experiment: as above; conditions: 312 h, application rate 250 g/ha, evaluated after 13 days, read-out: AVEFA percentage phytotoxicity
Procedure, shortened: as §8

Setaria viridis (SETVI) = experiment: Biological Example 4B (not-previously-formulated compounds) post-emergence herbicidal activity on grassy weeds; conditions: 14 DAA, technical compound in IF50 + Adigor, mean of two
Experimental: as §1, §2, §3, §4, §5
(§9) […] Herbicidal activity (phytotoxicity) is evaluated visually, and an assessed percentage phytotoxicity score is given for each herbicidal application on each plant species (with 100%=total damage to plant; 0%=no damage to plant). Two repetitions are made for each experiment, and the mean herbicidal activity (phytotoxicity) data is reported.
as §7

[6] = test system: Alopecurus myosuroides (ALOMY); experiment: as above; conditions: 14 DAA, technical compound in IF50 + Adigor, mean of two
Experimental: as §1, §2, §3, §4, §5, §9, §7

Poa annua (POAAN) = experiment: as above; conditions: 14 DAA, technical compound in IF50 + Adigor, mean of two
Experimental: as §1, §2, §3, §4, §5, §9, §7

Avena fatua (AVEFA) [7] = experiment: as above; conditions: 14 DAA, technical compound in IF50 + Adigor, mean of two
Experimental: as §1, §2, §3, §4, §5, §9, §7

Winter Wheat “Hereward” = experiment: Biological Example 4B post-emergence phytotoxicity on cereal crops; conditions: 14 DAA, technical compound in IF50 + Adigor, mean of two
Experimental: as §1, §2, §3, §4, §5, §9

Winter Barley “Suzuka” = experiment: as above; conditions: 14 DAA, technical compound in IF50 + Adigor, mean of two
Experimental: as §1, §2, §3, §4, §5, §9

Lolium perenne (LOLPE) [8] = experiment: Biological Example 1 glasshouse screen, post-emergence herbicidal activity; conditions: 312 h, application rate 250 g/ha, evaluated after 13 days, read-out: LOLPE percentage phytotoxicity
Procedure, shortened: as §8

Avena fatua (AVEFA) [9] = experiment: as above; conditions: 312 h, application rate 250 g/ha, evaluated after 13 days, read-out: AVEFA percentage phytotoxicity
Procedure, shortened: as §8

Spring Wheat “Teal” = experiment: Biological Example 4B post-emergence phytotoxicity on cereal crops; conditions: 14 DAA, technical compound in IF50 + Adigor, mean of two
Experimental: as §1, §2, §3, §4, §5, §6

[10] = test system: Echinochloa crus-galli (ECHCG); experiment: Biological Example 1 glasshouse screen, post-emergence herbicidal activity; conditions: 312 h, application rate 250 g/ha, evaluated after 13 days, read-out: ECHCG percentage phytotoxicity
Procedure, shortened: (§10)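 Pot-grown seedlings sprayed 1 day after sowing (pre-emergence) or after 8 days' growth (post-emergence) with active ingredient in acetone/water (50:50) plus 0.5% Tween 20; glasshouse at 24/16°C day/night, 14 h light, 65% humidity. Visual % phytotoxicity (0 = no damage, 100 = total damage) scored 13 days after application.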

[11] = test system: Alopecurus myosuroides (ALOMY); experiment: as above; conditions: 312 h, application rate 250 g/ha, evaluated after 13 days, read-out: ALOMY percentage phytotoxicity
Procedure, shortened: as §10

[12] = test system: Echinochloa crus-galli (ECHCG); experiment: Biological Example 1 glasshouse screen, pre-emergence herbicidal activity; conditions: 312 h, application rate 250 g/ha, evaluated after 13 days, read-out: ECHCG percentage phytotoxicity
Procedure, shortened: as §10

[13] = test system: Alopecurus myosuroides (ALOMY); experiment: as above; conditions: 312 h, application rate 250 g/ha, evaluated after 13 days, read-out: ALOMY percentage phytotoxicity
Procedure, shortened: as §10

[14] = 7.5 g/ha, cloquintocet-mexyl 50 g/ha
[15] = 15 g/ha, cloquintocet-mexyl 50 g/ha
[16] = 30 g/ha, cloquintocet-mexyl 50 g/ha
[17] = 60 g/ha, cloquintocet-mexyl 0 g/ha
[18] = 60 g/ha, cloquintocet-mexyl 50 g/ha

Compound `CC#Cc1cc(C)c(C2C(=O)CC(Cc3ccccn3)C2=O)c(CC)c1` (centres unmarked) [Compound A-26] has an LOLMU % phytotoxicity [1, 14] of 90%, an LOLMU % phytotoxicity [1, 15] of 100% and an LOLMU % phytotoxicity [1, 16] of 100%. The LOLMU % phytotoxicity [1, 17] was 100%, the LOLMU % phytotoxicity [1, 18] was 100% and the “Spring Barley “Harrington” phytotoxicity (%)” value ([2]; 7.5 g/ha) was 10%. The “Spring Barley “Harrington” phytotoxicity (%)” value ([2]; 15 g/ha) was 80%, the “Spring Barley “Harrington” phytotoxicity (%)” value [3, 16] was 99% and the “Spring Barley “Harrington” phytotoxicity (%)” value [3, 17] was 100%. The “Spring Barley “Harrington” phytotoxicity (%)” value [3, 18] was 100%, the pest or weed control at 250 g/ha (Lolium perenne (LOLPE) [4]) was 100% and the pest or weed control at 250 g/ha (Avena fatua (AVEFA) [5]) was 100%. For the same compound, the SETVI % phytotoxicity (Setaria viridis (SETVI); [14]) was 68%, the SETVI % phytotoxicity (Setaria viridis (SETVI); [15]) was 95% and the SETVI % phytotoxicity (Setaria viridis (SETVI); [16]) was 100%. For the same compound, the SETVI % phytotoxicity (Setaria viridis (SETVI); [17]) was 100%, the SETVI % phytotoxicity (Setaria viridis (SETVI); [18]) was 100% and the ALOMY % phytotoxicity [6, 14] was 97%. It also gave an ALOMY % phytotoxicity [6, 15] of 99%, an ALOMY % phytotoxicity [6, 16] of 100% and an ALOMY % phytotoxicity [6, 17] of 100%. The ALOMY % phytotoxicity [6, 18] was 100%, the POAAN % phytotoxicity (Poa annua (POAAN); [14]) was 0% and the POAAN % phytotoxicity (Poa annua (POAAN); [15]) was 13%. For the same compound, the POAAN % phytotoxicity (Poa annua (POAAN); [16]) was 33%, the POAAN % phytotoxicity (Poa annua (POAAN); [17]) was 73% and the POAAN % phytotoxicity (Poa annua (POAAN); [18]) was 70%. For the same compound, the AVEFA % phytotoxicity (Avena fatua (AVEFA) [7]; [14]) was 83%, the AVEFA % phytotoxicity (Avena fatua (AVEFA) [7]; [15]) was 99% and the AVEFA % phytotoxicity (Avena fatua (AVEFA) [7]; [16]) was 100%. For the same compound, the AVEFA % phytotoxicity (Avena fatua (AVEFA) [7]; [17]) was 100%, the AVEFA % phytotoxicity (Avena fatua (AVEFA) [7]; [18]) was 100% and the “Winter Wheat “Hereward” phytotoxicity (%)” value (Winter Wheat “Hereward”; [14]) was 30%. For the same compound, the “Winter Wheat “Hereward” phytotoxicity (%)” value (Winter Wheat “Hereward”; [15]) was 80%, the “Winter Wheat “Hereward” phytotoxicity (%)” value (Winter Wheat “Hereward”; [16]) was 90% and the “Winter Wheat “Hereward” phytotoxicity (%)” value (Winter Wheat “Hereward”; [17]) was 99%. For the same compound, the “Winter Wheat “Hereward” phytotoxicity (%)” value (Winter Wheat “Hereward”; [18]) was 98%, the “Winter Barley “Suzuka” phytotoxicity (%)” value (Winter Barley “Suzuka”; [14]) was 4% and the “Winter Barley “Suzuka” phytotoxicity (%)” value (Winter Barley “Suzuka”; [15]) was 53%. For the same compound, the “Winter Barley “Suzuka” phytotoxicity (%)” value (Winter Barley “Suzuka”; [16]) was 100%, the “Winter Barley “Suzuka” phytotoxicity (%)” value (Winter Barley “Suzuka”; [17]) was 100% and the “Winter Barley “Suzuka” phytotoxicity (%)” value (Winter Barley “Suzuka”; [18]) was 100%. For the same compound, the pest or weed control at 250 g/ha (Lolium perenne (LOLPE) [8]) was 100%, the pest or weed control at 250 g/ha (Avena fatua (AVEFA) [9]) was 100% and the “Spring Wheat “Teal” phytotoxicity (%)” value (Spring Wheat “Teal”; [14]) was 23%. For the same compound, the “Spring Wheat “Teal” phytotoxicity (%)” value (Spring Wheat “Teal”; [15]) was 78%, the “Spring Wheat “Teal” phytotoxicity (%)” value (Spring Wheat “Teal”; [16]) was 93% and the “Spring Wheat “Teal” phytotoxicity (%)” value (Spring Wheat “Teal”; [17]) was 100%. For the same compound, the “Spring Wheat “Teal” phytotoxicity (%)” value (Spring Wheat “Teal”; [18]) was 97%, the pest or weed control at 250 g/ha [10] was 100% and the pest or weed control at 250 g/ha [11] was 100%. The pest or weed control at 250 g/ha [12] was 100% and the pest or weed control at 250 g/ha [13] was 100%.
